Measurements taken from patent US5030638A, “Method of antiviral enhancement” (priority 1990, dated 1991).
Converted amounts (≈) assume the structure as drawn. Where two headings read alike, the source gives them in different places.

How the values were obtained:
HIV = conditions: cited from earlier work; for HIV inhibitory / antiviral activity: literature
glucosidase = conditions: Fleet et al.; cited from earlier work
almond β-glucosidase [1] = test: Beta-glucosidase inhibition assay, pH 7.4; assay type: biochemical; conditions: for IC50: pH 7.4, read-out: Enzyme Inhibition-IC50, Almond β-Glucosidase pH 7.4; for Inhibition Index (first, head is drawing 3) / Inhibition Index (second, head is drawing 4): ratio of IC50 values; for Inhibition Index (first, head is drawing 3): numerically almond pH 4.8 / almond pH 7.4; for Inhibition Index (second, head is drawing 4): numerically yeast α pH 7.4 / almond β pH 7.4
Procedure: (§1) Yeast alpha-glucosidase and almond beta-glucosidase activities were measured by a modification of the method of Evans, et al., Phytochemistry 22, 768-770 (1983). The modifications included 1) assay of activities at pH 7.4 in HEPES (N-2-hydroxyethylpiperazine-N'-2-ethanesulfonic acid) buffer, 2) measurement in 96 well microtiter plates and 3) inclusion of 10% DMSO in control and test samples.
(§2) The release of p-nitrophenol from the substrate p-nitrophenylglycoside was measured spectrophotometrically in the presence and absence of test compound. Each assay included a known inhibitor of the enzyme as a standard.
To 100 μl 50 mM HEPES buffer, pH 7.4, in a microtiter plate, add 20 μl test compound in DMSO (DMSO alone in control), 40 μl (0.136 units) beta-glucosidase (Sigma) in HEPES buffer and pre-incubate at room temperature for 15 minutes. Add 40 μl 1.25 mM p-nitrophenyl-beta-D-glucopyranoside in HEPES buffer, as substrate and monitor absorbance change at 405 nm in a Biotek EIA Autoreader. Absorption change was measured at 15 to 25 minutes (reaction is linear for at least 30 minutes). Each sample was tested in triplicate. […] Castanospermine was used as standard inhibitor.

[2] = Solubility in aqueous solvent (antiviral test); assay type: physicochemical
glucosidase I = conditions: Schweden et al.; compared to N-methyl- and N-butyl-derivatives; cited from earlier work
[3] = tested on: Sheep choroid plexus (SCP) cells; test: Toxicity in control wells (without virus) of the plaque reduction assay; assay type: cell-based; parameters: key: 0: no toxicity; 4: total cell lysates; conditions: graded 0 to 4
Procedure: (§3) Sheep choroid plexus(SCP) cells were obtained from American Type Culture Collection (ATCC) catalogue number CRL 1700 and were routinely passaged in vitro in Dulbecco's Modified Eagles (DME) medium supplemented with 20% fetal bovine serum (FBS). SCP cells were passaged once per week at a 1:2 or 1:3 split ratio. Visna was titrated by plaque assay in six-well plates. Virus pools were stored at -70° C.
(§4) SCP cells were cultured in 6-well plates to confluence. Wells were washed two times with serum free Minimal Essential Medium (MEM) to remove FBS. 0.2 ml of virus was added per well in MEM supplemented with 4 mM glutamine and gentamycin. After 1 hour adsorption, the virus was aspirated from each well. The appropriate concentration of each compound in 5 ml of Medium 199 (M-199) supplemented with 2% lamb serum, 4 mM glutamine, 0.5% agarose and gentamycin was added to each well. […] To terminate the test: cultures were fixed in 10% formalin, the agar removed, the monolayers stained with 1% crystal violet and plaques counted. Each compound concentration was run in triplicate. […] 0 is no toxicity observed while 4 is total lysing of the cell monolayer.
Toxicity graded on 0 to 4 scale 0 = no toxicity, 4 = total cell lysates

yeast α-glucosidase = biological target: T1, yeast α-glucosidase (Saccharomyces cerevisiae, UniProt P53341); test: Alpha-glucosidase inhibition assay, pH 7.4; assay type: biochemical
T1 construct: purchased Sigma
Procedure: as §1, §2
To 100 μl 50 mM HEPES buffer, pH 7.4, in a microtiter plate, add 20 μl test compound in DMSO (DMSO alone in control), 40 μl (0.013 units) yeast alpha-glucosidase (Sigma) in HEPES buffer and pre-incubate at room temperature for 15 minutes. Add 40 μl 1.25 mM p-nitrophenyl-alpha-D-glucopyranoside (Sigma) in HEPES buffer, as substrate, and monitor absorbance change at 405 nm in Biotek EIA Auto-reader. Absorption change was measured at 15 to 25 minutes (reaction was linear for at least 30 minutes). Each sample was tested in triplicate. […] Deoxynojirimycin was used as standard inhibitor.

almond β-glucosidase [4] = test: Beta-glucosidase inhibition assay, pH 4.8; assay type: biochemical; conditions: read-out: Enzyme Inhibition-IC50, Almond β-Glucosidase pH 4.8
Procedure: as §1, §2
To 100 μl 50 mM sodium citrate buffer, pH 4.8, in a microtiter plate, add 15 μl test compound in DMSO (DMSO alone in control), 20 μl (0.017 units) beta-glucosidase (Sigma) in citrate buffer and pre-incubate at room temperature for 15 minutes. Add 25 μl 2.50 mM p-nitrophenyl-beta-D-glucopyranside in citrate buffer, as substrate. […] Add 50 μl 0.4M NaOH. Read absorption change at 405 nm in a Biotek EIA Autoreader. Each sample was tested in triplicate. […] Castanospermine was used as standard inhibitor.

visna virus = test: Plaque reduction assay, inhibition of visna virus in vitro; assay type: cell-based; conditions: Visna-maedi virus, read-out: Antiviral Activity (plaque reduction)
Procedure: as §3, §4

HIV-1, strain HTLV-IIIB = test: Reduction of cytopathogenic effect (CPE) in HIV-1 infected CEM cells, MTT assay; assay type: cell-based; conditions: for inhibition at 1 µg/mL / inhibition at 3.2 µg/mL / inhibition at 10 µg/mL / inhibition at 32 µg/mL / inhibition at 500 µg/mL / inhibition at 100 µL/mL / IC50: Human immunodeficiency virus 1, IIIB, CCRF-CEM, 216 h; for inhibition at 1 µg/mL: 1.0 μg/ml; for inhibition at 1 µg/mL / inhibition at 3.2 µg/mL / inhibition at 10 µg/mL / inhibition at 32 µg/mL / inhibition at 500 µg/mL / inhibition at 100 µL/mL: read-out: Percent Reduction of CPE; for inhibition at 3.2 µg/mL: 3.2 μg/ml; for inhibition at 10 µg/mL: 10 μg/ml; for inhibition at 32 µg/mL: 32 μg/ml; for inhibition at 500 µg/mL: 500 μg/ml; for inhibition at 100 µL/mL: 100 μl/ml (so in the source); for IC50: read-out: ID50 (median inhibitory dose); for inhibition of HIV-1: in vitro
Procedure: These tests involved plating of susceptible human host cells which are syncytium-sensitive with and without virus in microculture plates, adding various concentrations of the test compound, incubating the plates for 9 days (during which time infected, non-drug treated control cells are largely or totally destroyed by the virus), and then determining the number of remaining viable cells using a colorimetric endpoint.
Tissue culture plates were incubated at 37° C. in a humidified, 5% CO2 atmosphere and observed microscopically for toxicity and/or cytopathogenic effect (CPE). At 2 and 6 days after infection, fresh dilutions of each test article were prepared from the frozen stock, and a 20 μl volume of each dilution (prepared as a 10× concentration was added to the appropriate wells of both infected and uninfected cells.
On the 9th day post-infection, the cells in each well were resuspended and a 100 μl sample of each cell suspension was removed for use in an MTT assay. A 20 μl volume of a 5 mg/ml solution of 3-(4,5-dimethylthiazol-2-yl)-2,5-diphenyltetrazolium bromide (MTT) was added to each 100 μl cell suspension, and the cells were incubated at 37° C. in 5% CO2 for 4 hours. […] A 100 μl volume of a solution of 10% sodium dodecyl sulfate in 0.01N hydrochloric acid wa added to each sample, and the samples were incubated overnight. The absorbance at 590 nm was determined for each sample using a Molecular Devices Vmax microplate reader. This assay detects drug-induced suppression of viral CPE, as well as drug cytotoxicity, by measuring the generation of MTT-formazan by surviving cells.
Assays were done in 96-well tissue culture plates. CEM cells were treated with polybrene at a concentration of 2 μg/ml, and an 80 μl volume of cells (1×10^4 cells) was dispensed into each well. A 100 μl volume of each test article dilution (prepared as a 2× concentration) was added to 5 wells of cells, and the cells were incubated at 37° C. for 1 hour. A frozen culture of HIV-1, strain HTLV-IIIB, was diluted in culture medium to a concentration of 5×10^4 TCID50 per ml, and a 20 μl volume (containing 10^3 TCID50 of virus) was added to 3 of the wells for each test article concentration. […] A 20 μl volume of normal culture medium was added to the remaining wells to allow evaluation of cytotoxicity. Each plate contained 6 wells of untreated, uninfected, cell control samples and 6 wells of untreated, infected, virus control samples. Dideoxycytidine (DDC) and dideoxyadenosine (DDA) were included as positive control compounds.

[5] = rat
[6] = Assay for excretion of metabolites in urine of rats; assay type: in vivo, rat
[7] = in vivo; cited from earlier work
[8] = Preliminary pharmacokinetic tests in rats, total radioactivity in the blood; conditions: rat
trimming glucosidase I = conditions: Hettkamp et al.; cited from earlier work
trimming glucosidase II = conditions: Hettkamp et al.; cited from earlier work
α-glycosidase = conditions: literature; cited from earlier work
[9] = HIV-1, CEM cells, reduction of CPE

T1 sequence (P53341 whole entry): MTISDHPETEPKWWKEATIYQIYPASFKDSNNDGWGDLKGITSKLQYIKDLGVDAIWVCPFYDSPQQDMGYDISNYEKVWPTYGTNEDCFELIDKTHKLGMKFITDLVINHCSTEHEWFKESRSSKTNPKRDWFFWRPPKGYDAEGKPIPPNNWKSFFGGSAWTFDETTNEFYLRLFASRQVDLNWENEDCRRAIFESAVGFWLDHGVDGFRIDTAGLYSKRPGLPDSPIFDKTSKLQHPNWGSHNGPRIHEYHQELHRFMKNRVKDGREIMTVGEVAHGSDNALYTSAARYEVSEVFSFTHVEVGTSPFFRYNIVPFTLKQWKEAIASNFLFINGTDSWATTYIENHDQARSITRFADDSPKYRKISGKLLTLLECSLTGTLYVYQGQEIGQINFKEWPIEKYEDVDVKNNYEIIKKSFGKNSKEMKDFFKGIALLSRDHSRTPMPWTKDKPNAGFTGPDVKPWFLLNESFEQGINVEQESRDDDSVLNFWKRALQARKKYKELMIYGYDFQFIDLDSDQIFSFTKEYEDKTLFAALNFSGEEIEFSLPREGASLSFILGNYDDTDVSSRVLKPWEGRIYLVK

OC[C@H]1NC[C@@H](O)[C@@H]1O (single isomer, unassigned) [D-enantiomer, 1,4-dideoxy-1,4-imino-arabinitol]
HIV inhibitory / antiviral activity (HIV): very little effect on HIV replication | glucosidase inhibition (glucosidase): known glucosidase inhibitors

OC[C@H]1NC[C@@H](O)[C@@H]1O (single isomer, unassigned) [L-enantiomer, 1,4-dideoxy-1,4-imino-arabinitol]
HIV inhibitory / antiviral activity (HIV): strong HIV inhibitory activity | glucosidase inhibition (glucosidase): known glucosidase inhibitors

CCCCCCN1C[C@H](O)[C@@H](O)[C@H](O)[C@H]1CO [Example 2, 1,5-(Hexylimino)-1,5-dideoxy-D-glucitol]
IC50 (almond β-glucosidase [1]): 4.8 µM | Inhibition Index (first, head is drawing 3) (almond β-glucosidase [1]): 30 | Inhibition Index (second, head is drawing 4) (almond β-glucosidase [1]): 77.3 | Solubility [2]: Solubility problem; compound did not completely dissolve | Ki, glucosidase I (glucosidase I): greater Ki values than the N-methyl- and N-butyl-derivatives | Toxicity ([3]; 1 μM): 2 | Toxicity ([3]; 10 μM): 0 | IC50 (yeast α-glucosidase; pH 7.4, read-out: Enzyme Inhibition-IC50, Yeast α-Glucosidase pH 7.4): 371 µM | IC50 (almond β-glucosidase [4]): 144 µM | inhibition at 1 µM (visna virus; 1 μM): 100% | inhibition at 10 µM (visna virus; 10 μM): 94% | ID50 compared to N-butyl-DNJ (HIV-1, strain HTLV-IIIB; HIV-1, CEM cells): advantageous reduction in ID50 | inhibition at 1 µg/mL (HIV-1, strain HTLV-IIIB): 0% | inhibition at 3.2 µg/mL (HIV-1, strain HTLV-IIIB): 15.6% | inhibition at 10 µg/mL (HIV-1, strain HTLV-IIIB): 65.6% | inhibition at 32 µg/mL (HIV-1, strain HTLV-IIIB): 68% | inhibition at 500 µg/mL (HIV-1, strain HTLV-IIIB): 147% | inhibition at 100 µL/mL (HIV-1, strain HTLV-IIIB): 65.1% | IC50 (HIV-1, strain HTLV-IIIB; [9]): 7.3 µg/mL (≈ 29.5 µM) | inhibition of HIV-1 (HIV-1, strain HTLV-IIIB): demonstrated to inhibit HIV-1

CCCCCCCCCN1C[C@H](O)[C@@H](O)[C@H](O)[C@H]1CO [Example 3, 1,5(Nonylimino)-1,5-dideoxy-D-glucitol]
t1/2 in vivo [5]: 6.24 h | IC50 (almond β-glucosidase [1]): 18 µM | Inhibition Index (first, head is drawing 3) (almond β-glucosidase [1]): 10.8 | Inhibition Index (second, head is drawing 4) (almond β-glucosidase [1]): 14.8 | Toxicity ([3]; 10 μM): 0 | Toxicity ([3]; 1 mM): 4 | IC50 (yeast α-glucosidase): 267 µM | IC50 (almond β-glucosidase [4]): 196 µM | metabolism [6]: metabolized | inhibition at 10 µM (visna virus): 69% | inhibition at 1000 µM (visna virus): 100% | ID50 compared to N-butyl-DNJ (HIV-1, strain HTLV-IIIB; HIV-1, CEM cells): advantageous reduction in ID50 | IC50 (HIV-1, strain HTLV-IIIB): 6.9 µg/mL (≈ 23.8 µM) | inhibition at 1 µg/mL (HIV-1, strain HTLV-IIIB): 0% | inhibition at 3.2 µg/mL (HIV-1, strain HTLV-IIIB): 25.7% | inhibition at 10 µg/mL (HIV-1, strain HTLV-IIIB): 62.5% | inhibition at 32 µg/mL (HIV-1, strain HTLV-IIIB): 28.9% | inhibition of HIV-1 (HIV-1, strain HTLV-IIIB): demonstrated to inhibit HIV-1

CCCCN1C[C@H](O)[C@@H](O)[C@H](O)[C@H]1CO [N-Butyl-DNJ, Nbutyl-deoxynojirimycin, reference compound]
gastrointestinal side effects [7]: gastrointestinal side effects seen | Solubility [2]: Solubility problem; compound did not completely dissolve | t1/2 in vivo [8]: 1.24 h | Toxicity ([3]; 10 μM): 0 | Toxicity ([3]; 1 mM): 0 | reduction of infectious viral particles (HIV; Karpas et al., at nontoxic concentrations): greater than five | HIV inhibitory / antiviral activity (HIV): significant antiviral activity | IC50 (yeast α-glucosidase): 536 µM | metabolism [6]: not metabolized | inhibition at 10 µM (visna virus; 10 μM): 57% | inhibition at 1000 µM (visna virus; 1 mM): 100% | inhibition at 10 µg/mL (HIV-1, strain HTLV-IIIB): 42.6% | inhibition at 32 µg/mL (HIV-1, strain HTLV-IIIB): 49.8% | inhibition at 500 µg/mL (HIV-1, strain HTLV-IIIB): 50.7% | inhibition at 100 µL/mL (HIV-1, strain HTLV-IIIB): 53.3% | IC50 (HIV-1, strain HTLV-IIIB; [9]): 34 µg/mL (≈ 155 µM)

CCCCCCCCCCCCN1C[C@H](O)[C@@H](O)[C@H](O)[C@H]1CO [N-dodecyl-1-deoxynojirimycin]
effect on trimming glucosidase I (trimming glucosidase I): to a lesser degree than deoxynojirimycin or N-methyl-deoxynojirimycin | effect on trimming glucosidase II (trimming glucosidase II): to a lesser degree than deoxynojirimycin or N-methyl-deoxynojirimycin

OC[C@H]1NCC[C@@H](O)[C@@H]1O [fagomine]
HIV inhibitory / antiviral activity (HIV): no HIV inhibition was observed | α-glycosidase inhibitory activity (α-glycosidase): known to have α-glycosidase inhibitory activity
